From patent US12258574B2, “Methods and compositions for transducing lymphocytes and regulating the activity thereof” (Exuma Biotech Corp., priority 2016, dated 2025)

Key:
CHO-Target 1 cells = assay: pH shift cytotoxicity assay / HCl switch RTCA killing assay (xCELLigence); type: cell-based; details: added about 3 hours after effector cells, E/T 1:1
Protocol: The cytotoxic activity of transduced T cells before and after pH change by addition of NaHCO3 or NaOH was measured using the xCELLigence System. Briefly, one day before the experiment, target cells (CHO cells stably transfected with a construct to express Target 1 on the cell surface (CHO-Target 1 cells)), were seeded into a 96-well E-plate (ACEA; San Diego, CA) at 10,000 cells/well with X-VIVO 15 media containing 40 mM HEPES and 40 mM PIPES, pH 6.7. Cryopreserved effector cells previously transduced with either lentiviral particles containing the nucleic acid encoding T1B or C1 (T1BVP and C1VP, respectively) produced as discussed above, were thawed and cultured for two days in X-VIVO 15 media containing 100 IU/mL of IL-2 (R&D Systems, Minneapolis, MN). On the day of the experiment, cells transduced with T1BVP or C1VP were washed and resuspended in X-VIVO 15 media containing 40 mM HEPES and 40 mM PIPES, pH 6.7 and then added into the experimental wells at effector cell/target cell ratios (E/T) of 1:1.
Impedance readings measured on the xCELLigence System (ACEA) were taken every 5 minutes and reported as the Cell Index (CI) to quantitate cell confluency as a measure of cell proliferation/cell lysis. Approximately 3 hours after effector cell addition, 8 μl of 7.5% NaHCO3 or 14 μl of 0.5 M NaOH was added into the wells with X-VIVO 15 media containing 40 mM HEPES and 40 mM PIPES, pH 6.7 to increase the pH from 6.7 to 7.4. Impedance readings were continued for approximately 20 hours after effector cell addition. Percentage of specific cytolysis was calculated as follows ((CI Target+C1VP transduced effector T cells)−(CI Target+T1BVP transduced effector T cells))/(CI Target+C1VP transduced effector T cells)×100.
The cytotoxic activity of transduced T cells before and after pH change by addition of HCl was measured using the xCELLigence System. Briefly, one day before the experiment, CHO-Target 1 cells were seeded into a 96 well E-plate at 10,000 cells/well with X-VIVO 15 media containing 40 mM HEPES and 40 mM PIPES, pH 7.4. Cryopreserved effector cells previously transduced with either C1VP or T1BVP, were thawed and cultured for two days in X-VIVO 15 media containing 100 IU/mL of IL-2. On the day of the experiment, cells transduced with T1BVP or C1VP were washed and resuspended in X-VIVO 15 media containing 40 mM HEPES and 40 mM PIPES, pH 7.4 and then added into experimental wells at effector cell/target cell ratios (E/T) of 1:1.
Impedance readings were taken every 5 minutes and reported as the Cell Index (CI). […] Impedance readings were continued for approximately 20 hours after effector cell addition. Percentage of specific cytolysis was calculated as follows ((CI Target+C1VP transduced effector T cells)−(CI Target+T1BVP transduced effector T cells))/(CI Target C1VP)×100.

[1] = tested on: cathepsin B, L, S, K, V, and D; details: 1 ml/mouse 1 M ip, 30 min post administration, n=3, vs PBS
From the text: Fortunately, the relative protease activity of cathepsin is higher at lower pH and lower at higher pH. Therefore, the measurement of intratumoral cathepsin activity can serve as a surrogate measure of the pH of the tumor microenvironment. To measure in vivo activities of cathepsin B, L, S, K, V, and D, the near-infrared ProSense 750 FAST probe (PerkinElmer) was used.
Mice were handled in accordance with Institutional Animal Care and Use Committee approved protocols. Subcutaneous (sc) Chinese Hamster Ovary (CHO) tumor xenografts were established in the hind flank of 12-14 week old female B-NSG mice (NOD-PrkdcscidIl2rgtm1/Bcgen (Beijing Biocytogen Co. Ltd.). Briefly, cultured CHO cells (ATCC, Manassas, VA) were washed in DPBS (ThermoFisher), counted, resuspended in cold DPBS and mixed with an appropriate volume of Matrigel ECM (Corning; final concentration 5 mg/mL) at a concentration of 1.5×10^6 cells/200 μl on ice.
Animals were prepared for injection using standard approved anesthesia with hair removal (Nair) prior to injection. 200 μl of the cell suspension in ECM was injected sc into the rear flanks of the mice. Once tumors were palpable, the tumors were measured using calipers 2 times/week. Tumor volume was calculated using the following equation: (longest diameter*shortest diameter^2)/2. […]

[2] = 1.5 hours post ip administration, n=3, relative to PBS-treated mice
From the text: Phenol red is a pH indicator which undergoes a pH-dependent color transition. […] A solution of phenol red has a yellow color at a pH of 6.4 or below, an orange color around pH 7.0, a red color around pH 7.4, and a purple color above pH 7.8.
The CHO xenograft tumor was excised from each mouse. The xenograft tumors were split into two halves with a scalpel and placed on a petri dish. The tumor tissue halves were then cut/sliced repeatedly using the scalpel. Water or 0.05% phenol red solution (50 mg phenol red/100 ml water) was added dropwise to each tumor half, respectively. The color was noted and images were taken of the treated tumor xenografts and of the phenol red solution remaining on the petri plate once the tumor xenograft samples were removed.

[3] = 50-milliliter bolus; cited from earlier work
CHO-Target 1 = assay: xCELLigence cytotoxicity of MRB-CAR T cells at pH 6.7 vs pH 7.4, CHO-Target 1; type: cell-based; details: E/T 3:1, 1:1, 0.3:1; about 40 hours
Protocol: The cytotoxic activity of the candidate MRB-CARs against target cells expressing either Target 1 or Target 2 (CHO-Target 1 and CHO-Target 2, respectively) was analyzed at a pH of 7.4 (normal tissue) or a pH of 6.7 (reduced pH of a tumor microenvironment) by xCELLigence System (ACEA). Briefly, target cells expressing Target 1 or Target 2 were seeded to a 96-well E-plate at 20,000 cells/well with tumor conditional or normal medium one day before the experiment. Effector cells were rested for two days in human T cell medium containing 100 IU/mL of IL-2 and added into experimental wells containing Target cells at effector cell/target cell ratios (E/T) of 3:1, 1:1, and 0.3:1.
Impedance readings were taken every 5 minutes for approximately 40 hours after effector cell addition and impedance was reported as the Cell Index (CI). Percentage of specific cytolysis was calculated as follows ((CI Target+Control virus transduced effector T cells)−(CI Target+effector T cells transduced with CARs directed to Target 1 or Target 2))/(CI Target+Control virus transduced effector T cells)×100.

Row | Molecule | effect on cytotoxic activity of MRB-CAR T cells of raising media pH from 6.7 to 7.4 (CHO-Target 1 cells) | intratumoral cathepsin activity (RFU), surrogate of tumor microenvironment pH [1] | color of phenol red indicator on excised tumor tissue [2] | rise of serum pH [3] | cytotoxic activity on target cells at pH 6.7 versus pH 7.4 (CHO-Target 1)
1 | O=C([O-])O.[Na+] [sodium bicarbonate] | inhibited the cytotoxic activity | decreased cathepsin activity | from yellow/orange to red | approximately 0.1 pH unit | 
2 | MRB-CAR T1A: anti-Target 1 microenvironment restricted CAR; VH SEQ ID NO:281, Linker 1, VL SEQ ID NO:282; CD28 stalk/TM, ICΔ, CD3Z (protein, anti-Target 1 microenvironment restricted CAR; CD28 stalk/TM, ICΔ, CD3Z) EVQLVQSGAEVKKPGATVKISCKVSGYSFWGATMNWIRQPPGKGLEWIGLIKPSNGGTSYNQKFKGRVTISADKSISTAYLQWSSLKASDTAMYYCAHGHYESYEAMDYWGQGTLVTVSSGGGGSGGGGSGGGGSDIQMTQSPSSLSASVGDRVTITCKASQDVVSAVAWYQQKPGQAPRLLIYWQDTRHTGVPSRFSGSGSGTEFTLTISSLQPDDFATYYCQEHFSPPLTFGQGTKVEIKFWVLVVVGGVLACYSLLVTVAFIIFWVRSKRSRLLHSDYMNMTPRRPGPTRKHYQAYAAARDFAAYRSRVKFSRSADAPAYQQGQNQLYNELNLGRREEYDVLDKRRGRDPEMGGKPRRKNPQEGLYNELQKDKMAEAYSEIGMKGERRRGKGHDGLYQGLSTATKDTYDALHMQALPPR |  |  |  |  | more effective at lysing target cells at a pH of 6.7 than at a pH of 7.4
